The values that follow are results of earlier work, collected in US20110144117A1, “Pharmaceutical Dosage Form Containing Tetrahydrobiopterin” (OrPha Swiss GmbH, priority 2008, published 2011).

For data set [1] the following is noted: in pure water.
The test system of data set [2] is patient with a dihydrobiopterin deficiency. The note with it: single dose, patient with dihydrobiopterin deficiency (Niederwieser et al.).
The test system of data set [3] is patients exhibiting mutations in the PAH gene. Conditions: dietary supplementation, patients with mutations in the PAH gene (Kure et al.).

As to `C[C@H](O)C(=O)C1=Nc2c(nc(N)[nH]c2=O)NC1` [L-sepiapterin], the solubility in data set [1] is 0.17 g/100 g H2O. For the same molecule, the symptoms of hyperphenylalaninemia entry in data set [2] is recorded as “transiently disappeared”.

In the case of `CC(O)C(O)C1CNc2nc(N)[nH]c(=O)c2N1` (stereo not drawn) [tetrahydrobiopterin, 5,6,7,8-tetrahydro-biopterin], the “phenylalanine blood plasma concentration” value in data set [3] is “reduces”.
